Experimental data published in patent US20170190671A1, “BIS(ARYL)CATECHOL DERIVATIVES AS HERBICIDES” (E I DU PONT DE NEMOURS AND COMPANY, priority 2014, published 2017).

Experiments:
Format in all cases: in vivo
[1] = test system: barnyardgrass (Echinochloa crus-galli); experiment: Test B flooded paddy; conditions: Echinochloa crus-galli, 336 h; 250 g ai/ha, Flood, 13 to 15 days, scale 0 (no effect) to 100 (complete control); read-out: Plant response rating, Barnyardgrass
In short: (§1)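 In-water treatment: compound dosed into 3 cm flood over soil, water level unchanged throughout. Controls run alongside; visual assessment at day 13–15.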

[2] = test system: ducksalad (Heteranthera limosa); experiment: Test B flooded paddy; conditions: Heteranthera limosa, 336 h; 250 g ai/ha, Flood, 13 to 15 days, scale 0 (no effect) to 100 (complete control); read-out: Plant response rating, Ducksalad
In short: as §1

rice (Oryza sativa) = experiment: Test B flooded paddy; conditions: Oryza sativa, 336 h; 250 g ai/ha, Flood, 13 to 15 days, scale 0 (no effect) to 100 (complete control); read-out: Plant response rating, Rice
In short: as §1

[3] = test system: sedge, umbrella (small-flower umbrella sedge, Cyperus difformis); experiment: Test B flooded paddy; conditions: Cyperus difformis, 336 h; 250 g ai/ha, Flood, 13 to 15 days, scale 0 (no effect) to 100 (complete control); read-out: Plant response rating, Sedge, Umbrella
In short: as §1

[4] = test system: Italian ryegrass (Lolium multiflorum); experiment: Test A preemergence; conditions: Lolium multiflorum, pre-emergence, 240 h, 0 to 100 scale (0 no effect, 100 complete control), read-out: Ryegrass, Italian plant response rating
In short: (§2)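 Injury scores run from 0, no effect, to 100, complete control, judged by eye against untreated plants roughly 10 days after treatment. Chemicals carried a surfactant in a non-phytotoxic solvent and went onto loam–sand soil preemergence or onto one- to two-leaf seedlings postemergence.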

[5] = test system: barnyardgrass (Echinochloa crus-galli); experiment: Test A preemergence; conditions: Echinochloa crus-galli, pre-emergence, 240 h
In short: as §2

[6] = test system: giant foxtail (Setaria faberii); experiment: Test A preemergence; conditions: Setaria faberi, pre-emergence, 240 h, 0 to 100 scale (0 no effect, 100 complete control), read-out: Foxtail, Giant plant response rating
In short: as §2

kochia (Kochia scoparia) [7] = experiment: Test A preemergence; conditions: Bassia scoparia, pre-emergence, 240 h, 0 to 100 scale (0 no effect, 100 complete control), read-out: Kochia plant response rating
In short: as §2

[8] = test system: pigweed (Amaranthus retroflexus); experiment: Test A preemergence; conditions: Amaranthus retroflexus, pre-emergence, 240 h, 0 to 100 scale (0 no effect, 100 complete control), read-out: Pigweed plant response rating
In short: as §2

[9] = test system: ragweed (common ragweed, Ambrosia elatior); experiment: Test A preemergence; conditions: Ambrosia artemisiifolia, pre-emergence, 240 h, 0 to 100 scale (0 no effect, 100 complete control), read-out: Ragweed plant response rating
In short: as §2

[10] = test system: Italian ryegrass (Lolium multiflorum); experiment: Test A postemergence; conditions: Lolium multiflorum, post-emergence, 240 h, 0 to 100 scale, read-out: Plant response rating, Ryegrass, Italian
In short: as §2

[11] = test system: barnyardgrass (Echinochloa crus-galli); experiment: Test A postemergence; conditions: Echinochloa crus-galli, post-emergence, 240 h, 0 to 100 scale, read-out: Plant response rating, Barnyardgrass
In short: as §2

[12] = test system: blackgrass (Alopecurus myosuroides); experiment: Test A postemergence; conditions: Alopecurus myosuroides, post-emergence, 240 h, 0 to 100 scale, read-out: Plant response rating, Blackgrass
In short: as §2

corn (Zea mays) = experiment: Test A postemergence; conditions: Zea mays, post-emergence, 240 h, 0 to 100 scale
In short: as §2

[13] = test system: galium (catchweed bedstraw, Galium aparine); experiment: Test A postemergence; conditions: Galium, post-emergence, 240 h, 0 to 100 scale, read-out: Plant response rating, Galium
In short: as §2

[14] = test system: giant foxtail (Setaria faberii); experiment: Test A postemergence; conditions: Setaria faberi, post-emergence, 240 h, 0 to 100 scale, read-out: Plant response rating, Foxtail, Giant
In short: as §2

kochia (Kochia scoparia) [15] = experiment: Test A postemergence; conditions: Bassia scoparia, post-emergence, 240 h, 0 to 100 scale, read-out: Plant response rating, Kochia
In short: as §2

[16] = test system: pigweed (Amaranthus retroflexus); experiment: Test A postemergence; conditions: Amaranthus retroflexus, post-emergence, 240 h, 0 to 100 scale, read-out: Plant response rating, Pigweed
In short: as §2

[17] = test system: ragweed (common ragweed, Ambrosia elatior); experiment: Test A postemergence; conditions: Ambrosia artemisiifolia, post-emergence, 240 h, 0 to 100 scale, read-out: Plant response rating, Ragweed
In short: as §2

[18] = test system: wheat (Triticum aestivum); experiment: Test A postemergence; conditions: Triticum aestivum, post-emergence, 240 h, 0 to 100 scale, read-out: Plant response rating, Wheat
In short: as §2

kochia (Kochia scoparia) [19] = experiment: Test C postemergence; conditions: Bassia scoparia, post-emergence, Postemergence, scale 0 to 100, read-out: Plant response rating, Kochia
In short: (§3)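 Seeded loam-sand soil (preemergence) or young potted plants of 2-18 cm (postemergence) received test chemical formulated with surfactant in a non-phytotoxic solvent. Pots were kept in the greenhouse for 13-15 days before a visual 0-100 control rating relative to controls.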

[20] = test system: waterhemp (common waterhemp, Amaranthus rudis); experiment: Test C postemergence; conditions: Amaranthus tuberculatus, post-emergence, Postemergence, scale 0 to 100, read-out: Plant response rating, Waterhemp
In short: as §3

wild oat (Avena fatua) = experiment: Test C postemergence; conditions: Avena fatua, post-emergence, Postemergence, scale 0 to 100, read-out: Plant response rating, Oat, Wild
In short: as §3

SMILES: Fc1cnc(Oc2c(F)ccc(F)c2Oc2ncc(F)cn2)nc1 [Compound 29, 2,2′-[(3,6-difluoro-1,2-phenylene)bis(oxy)]bis[5-fluoropyrimidine]]
- pest or weed control at 250 g/ha [1]: 90%
- pest or weed control at 250 g/ha [2]: 90%
- plant injury at 250 g/ha (rice (Oryza sativa)): 85%
- pest or weed control at 250 g/ha [3]: 75%
- pest or weed control at 31 g/ha ([4]; 31 g ai/ha): 0%
- pest or weed control at 125 g/ha ([4]; 125 g ai/ha): 30%
- pest or weed control at 31 g/ha ([5]; 31 g ai/ha, 0 to 100 scale (0 no effect, 100 complete control), read-out: Barnyardgrass plant response rating): 10%
- pest or weed control at 125 g/ha ([5]; 125 g ai/ha, 0 to 100 scale, read-out: Plant response rating, Barnyardgrass): 100%
- pest or weed control at 31 g/ha ([6]; 31 g ai/ha): 80%
- pest or weed control at 125 g/ha ([6]; 125 g ai/ha): 100%
- pest or weed control at 31 g/ha (kochia (Kochia scoparia) [7]; 31 g ai/ha): 80%
- pest or weed control at 125 g/ha (kochia (Kochia scoparia) [7]; 125 g ai/ha): 100%
- pest or weed control at 31 g/ha ([8]; 31 g ai/ha): 100%
- pest or weed control at 125 g/ha ([8]; 125 g ai/ha): 100%
- pest or weed control at 31 g/ha ([9]; 31 g ai/ha): 0%
- pest or weed control at 125 g/ha ([9]; 125 g ai/ha): 90%
- pest or weed control at 31 g/ha ([10]; 31 g ai/ha): 20%
- pest or weed control at 125 g/ha ([10]; 125 g ai/ha): 20%
- pest or weed control at 31 g/ha ([11]; 31 g ai/ha): 20%
- pest or weed control at 125 g/ha ([11]; 125 g ai/ha): 80%
- pest or weed control at 31 g/ha ([12]; 31 g ai/ha): 80%
- pest or weed control at 125 g/ha ([12]; 125 g ai/ha): 90%
- Corn plant response rating (crop injury, 0 = no effect, 100 = complete kill) at 31 g/ha (corn (Zea mays); 31 g ai/ha): 20%
- Corn plant response rating (crop injury, 0 = no effect, 100 = complete kill) at 125 g/ha (corn (Zea mays); 125 g ai/ha): 90%
- pest or weed control at 31 g/ha ([13]; 31 g ai/ha): 100%
- pest or weed control at 125 g/ha ([13]; 125 g ai/ha): 100%
- pest or weed control at 31 g/ha ([14]; 31 g ai/ha): 30%
- pest or weed control at 125 g/ha ([14]; 125 g ai/ha): 60%
- pest or weed control at 31 g/ha (kochia (Kochia scoparia) [15]; 31 g ai/ha): 80%
- pest or weed control at 125 g/ha (kochia (Kochia scoparia) [15]; 125 g ai/ha): 100%
- pest or weed control at 31 g/ha ([16]; 31 g ai/ha): 90%
- pest or weed control at 125 g/ha ([16]; 125 g ai/ha): 90%
- pest or weed control at 31 g/ha ([17]; 31 g ai/ha): 40%
- pest or weed control at 125 g/ha ([17]; 125 g ai/ha): 60%
- plant injury at 31 g/ha ([18]; 31 g ai/ha): 30%
- plant injury at 125 g/ha ([18]; 125 g ai/ha): 80%
- pest or weed control at 16 g/ha (kochia (Kochia scoparia) [19]; 16 g ai/ha): 80%
- pest or weed control at 31 g/ha (kochia (Kochia scoparia) [19]; 31 g ai/ha): 90%
- pest or weed control at 62 g/ha (kochia (Kochia scoparia) [19]; 62 g ai/ha): 90%
- pest or weed control at 125 g/ha (kochia (Kochia scoparia) [19]; 125 g ai/ha): 95%
- pest or weed control at 31 g/ha ([20]; 31 g ai/ha): 85%
- pest or weed control at 62 g/ha ([20]; 62 g ai/ha): 90%
- pest or weed control at 125 g/ha ([20]; 125 g ai/ha): 95%
- pest or weed control at 31 g/ha (wild oat (Avena fatua); 31 g ai/ha): 5%
- pest or weed control at 62 g/ha (wild oat (Avena fatua); 62 g ai/ha): 30%
- pest or weed control at 125 g/ha (wild oat (Avena fatua); 125 g ai/ha): 35%
